Literature values in US20050113452A1, “Composition and dosage form for sustained effect of levodopa” (priority 2003, published 2005).

Tested on: Parkinson's disease patients
Details: especially when the two drugs are delivered together, Camicioli et al. 2001

## COC(=O)C(c1ccccc1)C1CCCCN1 (stereo not shown) [Methylphenidate, methylphenidate]
  Motor effects when used with levodopa: severe dyskinesia
